Results: patent US4338314A, “[1,2]Anellated-7-phenyl-1,4-benzodiazepine and pharmaceutical compositions thereof and use for treatment of ulcers” (Kali-Chemie Pharma GmbH, priority 1978, dated 1982)

Experiments:
[1] = Acute 7-day toxicity after a single application per os (LD50); conditions: mouse, in vivo; single oral dose, unfed white NMRI mice, 7 days
Experimental: The acute 7-day toxicity is determined after a single application per os in white NMRI mice which have not been fed. The calculation of the LD50 is carried out by probitananalysis by means of electronic data processing (see L. Cavalli-Sforza, Gustav-Fischer-Verlag, Stuttgart (1964), Grundbegriffe der Biometrie, Chapter 10, pages 153-190).

muscle tone = experiment: Testing of musculatropic properties (traction test); type: in vivo; conditions: Mus musculus, 2 h; oral, mice, after 120 minutes; half of animals do not touch wire with hind legs within 5 seconds
Experimental: 3. Testing of Musculatropic Properties:
In a traction test, mice are administered the test substance orally. After 120 minutes the mice are attached at the front paws to a horizontally suspended wire. The ED50 is the dose which causes exactly half of the animals not to touch the wire also with their hind legs within a period of 5 seconds, (W. Theobald et al, Arneim. Forschung 17, (1967), page 561). This test measures the influence of the test substance on the muscle tone of the test subject.

[2] = test system: central nervous system (hexobarbital sleep time); experiment: Central nervous depressant properties (prolonging the hexobarbital sleep time); type: in vivo; conditions: Mus musculus, 0.5 h; oral, mice, 30 minutes before 64 mg/kg hexobarbital; half of animals extend sleep by factor of 4; read-out: Prolonging hexobarbitol sleep time (ED50)
Experimental: 4. Testing of Central Nervous Depressant Properties (Prolonging the Hexobarbital sleep time):
The test substance is administered orally to mice. After 30 minutes, the animals are additionally injected with hexabarbitol in an amount of 64 mg/kg. The time point of the onset of sleeping posture is determined and the duration of sleeping posture is compared with a control group treated exclusively with hexobarbitol. The dose, with which half of the animals extend the time of sleeping posture by a factor of 4 over that of the control group, is defined as ED50. (J. W. Kemp. M. Tannhauser and E. A. Swingard, Arch. Int. Pharmacodyn. 193(1971), pp 34-47).

[3] = test system: indomethacine-induced ulcers; experiment: Effectiveness against indomethacine-induced ulcers in rats; type: in vivo, rats (male); conditions: Rattus norvegicus, 1 h before 40 mg/kg indomethacine, 24 h, read-out: Ulcer induced by indomethacine, % inhibited; for inhibition in vivo at 100 mg/kg: 100 mg/kg oral; for inhibition in vivo at 200 mg/kg: 200 mg/kg oral
Experimental: 2. Effectiveness Against Indomethacine-Induced Ulcers in Rats Modified Test Procedure According to U. Jahn and R. W. Adrian, Arzneimittel Forschung, (Drug Research) 19, (1969), p. 36.:
The animals of the blank control group receive the corresponding amount by volume of the suspension medium only. One hour after the application of the test compouns, a dosage of 40 mg/kg of indomethacine contained in an amount of 0.5 ml of a suspension per 100 g animal weight are orally applied to each animal for producing ulcers. Twenty-four hours after the application of the indomethacine the animals are sacrificed.

central nervous system = experiment: Central nervous / psychopharmacological activity, side effects and toxicity, general statement

Question: With `COc1ccc2c(c1)N1CCOCC1CN=C2c1ccccc1` (stereo not shown) [F] as the molecule, how does the LD50 at 168 h [1] read?
Answer: > 1430 mg/kg

Question: What about the ED50 (muscle tone) of the same molecule?
Answer: > 308 mg/kg

Question: And the ED50 [2]?
Answer: 202 mg/kg

Question: What about the inhibition in vivo at 100 mg/kg [3] of the same molecule?
Answer: 42%

Question: Which results are given for `Fc1ccc2c(c1)C(c1ccccc1)=NCC1COCCN21` (stereo not shown) [B]?
Answer: LD50 at 168 h [1]: > 1370 mg/kg; ED50 (muscle tone): > 296 mg/kg; ED50 [2]: 80.3 mg/kg; inhibition in vivo at 100 mg/kg [3]: 77%

Question: Which results are given for `CN1C(=O)CN=C(c2ccccc2)c2cc(Cl)ccc21` [Substance S, 7-chloro-1-methyl-5-phenyl-1,3-dihydro-2H-1,4-benzodiazepin-2-one]?
Answer: psychopharmacological effect (central nervous system; already with small doses): strong; tolerability of higher doses sufficient to achieve an improved ulcer inhibiting effect (central nervous system; higher doses): not tolerable

Question: Which results are given for `Clc1ccc2c(c1)C(c1ccccc1)=NCC1COCCN21` (stereo not shown) [A]?
Answer: LD50 at 168 h [1]: 2260 mg/kg; ED50 (muscle tone): 285 mg/kg; ED50 [2]: 31.6 mg/kg; inhibition in vivo at 150 mg/kg ([3]; 150 mg/kg oral): 61%

Question: Which LD50 at 168 h [1] does the source give for `Cc1ccc2c(c1)C(c1ccccc1)=NCC1CN(C)CCN21` (stereo not shown) [L] here?
Answer: > 1010 mg/kg

Question: And the ED50 (muscle tone)?
Answer: > 215 mg/kg

Question: What about the ED50 [2] of the same molecule?
Answer: 164 mg/kg

Question: And the inhibition in vivo at 250 mg/kg ([3]; 250 mg/kg oral)?
Answer: 70%

Question: What does the source list for `Cc1cc2c(cc1Cl)N1CCOCC1CN=C2c1ccccc1` (stereo not shown) [G]?
Answer: LD50 at 168 h [1]: > 1520 mg/kg; ED50 (muscle tone): > 327 mg/kg; ED50 [2]: 119 mg/kg; inhibition in vivo at 200 mg/kg [3]: 77%

Question: With `Clc1ccc2c(c1)C(c1ccccc1Cl)=NCC1COCCN21` (stereo not shown) [E] as the molecule, how does the LD50 at 168 h [1] read?
Answer: > 1470 mg/kg

Question: And the ED50 (muscle tone)?
Answer: > 316 mg/kg

Question: What about the ED50 [2] of the same molecule?
Answer: 11.8 mg/kg

Question: What about the inhibition in vivo at 100 mg/kg [3] of the same molecule?
Answer: 86%

Question: For `Cc1ccc2c(c1)C(c1ccccc1)=NCC1COCCN21` (stereo not shown) [C], which LD50 at 168 h [1] is on record?
Answer: > 1430 mg/kg

Question: What about the ED50 (muscle tone) of the same molecule?
Answer: > 316 mg/kg

Question: What about the ED50 [2] of the same molecule?
Answer: 139 mg/kg

Question: What about the inhibition in vivo at 200 mg/kg [3] of the same molecule?
Answer: 68%

Question: With `Clc1ccc2c(c1)C(c1ccccc1)=NCC1CSCCN21` (stereo not shown) [H] as the molecule, how does the LD50 at 168 h [1] read?
Answer: > 1470 mg/kg

Question: What about the ED50 (muscle tone) of the same molecule?
Answer: 316 mg/kg

Question: And the ED50 [2]?
Answer: 153 mg/kg

Question: What about the inhibition in vivo at 100 mg/kg [3] of the same molecule?
Answer: 74%

Question: Which results are given for `Cc1ccc2c(c1)N1CCOCC1CN=C2c1ccccc1` (stereo not shown) [D]?
Answer: LD50 at 168 h [1]: > 1470 mg/kg; ED50 (muscle tone): > 316 mg/kg; ED50 [2]: 138 mg/kg; inhibition in vivo at 100 mg/kg [3]: 70%

Question: Which LD50 at 168 h [1] does the source give for `C=CCN1CCN2c3ccc(Cl)cc3C(c3ccccc3)=NCC2C1` (stereo not shown) [I] here?
Answer: 1090 mg/kg

Question: What about the ED50 (muscle tone) of the same molecule?
Answer: > 316 mg/kg

Question: What about the ED50 [2] of the same molecule?
Answer: 100 mg/kg

Question: And the inhibition in vivo at 200 mg/kg [3]?
Answer: 81%

Question: Which ED50 (muscle tone) does the source give for `CN1C(=O)CN=C(c2ccccc2)c2cc(Cl)ccc21` [S] here?
Answer: 4.2 mg/kg

Question: What about the ED50 [2] of the same molecule?
Answer: 1.5 mg/kg

Question: And the inhibition in vivo at 12 mg/kg ([3]; 12 mg/kg oral, higher doses not tolerable)?
Answer: 28%

Question: Which results are given for `Clc1ccc2c(c1)C(c1ccccc1)=NCC1CN(CCc3ccccc3)CCN21` (stereo not shown) [K]?
Answer: LD50 at 168 h [1]: > 1310 mg/kg; ED50 (muscle tone): > 284 mg/kg; ED50 [2]: 110 mg/kg; inhibition in vivo at 200 mg/kg [3]: 85%
